Like-named read-outs stand apart in the source and are kept apart here.
How the values were obtained:
HCV replicon 2B = experiment: Cell-based HCV Replicon Assay A, replicon 2B
How it was run: (§1)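 Replicon cells were seeded at 2000 cells/well with test compound in 10 serial dilutions, starting at 333.3 nM to 1.667 nM, in 0.5% DMSO and 5% FBS. On day 3, cells were washed and lysed, and replicon RNA was quantified by multiplex TaqMan RT-PCR normalised to cyclophilin.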

HCV replicon 1AY93H = experiment: Cell-based HCV Replicon Assay A, replicon 1AY93H
How it was run: as §1

HCV replicon 1A = experiment: Cell-based HCV Replicon Assay A, replicon 1A
How it was run: as §1

HCV replicon 1B = experiment: Cell-based HCV Replicon Assay B, replicon 1B
Procedure: In an alternate assay (“Replicon Assay B”), 1000 cells were seeded per well in a 384-well collagen coated black plate from Greiner bio-one (Cat #781946) in 5% FBS. Inhibitors of this invention were added at 24 h post-seeding, and the plates were incubated for 3 days. Cells were subsequently lysed with Qiagen lysis buffer (Cat #1062731) to extract the RNA. HCV replicon RNA level was measured by real-time PCR using the RNA-to-CT kit from Applied Biosystem (Cat #4392656) and genotype-specific primers and probes. The amplicon was located within NS5B. The sequence of the PCR primers are as follows: 5B.2F, ATGGACAGGCGCCCTGA (SEQ. ID NO. 1); 5B.2R, […] (SEQ. ID NO. 2); the probe sequence was FAM-labeled CACGCCATGCGCTGCGG (SEQ. ID NO. 3). To detect genotype 1A the primer 1A F, TGCGGAACCGGTGAGTACA and 1A R, […] were used; the probe sequence was FAM-[…].
The real-time RT-PCR reactions were run on ABI PRISM 7900HT or Viia7 Sequence Detection System using the following program: 48° C. for 30 minutes, 95° C. for 10 minutes, 40 cycles of 95° C. for 15 sec, 60° C. for 1 minutes. The 50% effective concentration (EC50) was the drug concentration necessary to achieve an increase in the cycle threshold (CT) of 1 over the projected baseline CT.
Data was obtained for various compounds of the present invention using the methods described in the Example above, and is presented in the table immediately below. Data for replicons 1A, 1AY93H and 2B were obtained using Replicon Assay A and data for replicons 1AQ30D and 1B were obtained using Replicon Assay B.

[1] = read-out: 1A Y93H IC50, replicon 1AY93H
[2] = Hepatitis C virus, read-out: 1A Y93H IC50 (nM), replicon 1AY93H
[3] = Hepatitis C virus, read-out: 2B IC50 (nM), replicon 2B
[4] = replicon 1AY93H, read-out: 1A Y93H IC50

| Structure (SMILES) | IC50 (HCV replicon 2B; read-out: 2B IC50, replicon 2B) [nM] | IC50 (HCV replicon 1AY93H; [1]) [nM] | IC50 (HCV replicon 1A; Hepatitis C virus) [pM] | IC50 (HCV replicon 1B; Hepatitis C virus) [pM] | IC50 (HCV replicon 1A) [pM] | IC50 (HCV replicon 1B) [pM] | IC50 (HCV replicon 1AY93H; [2]) [nM] | IC50 (HCV replicon 2B; [3]) [nM] | IC50 (HCV replicon 2B; replicon 2B, read-out: 2B IC50) [nM] | IC50 (HCV replicon 1AY93H; [4]) [nM] |
| --- | --- | --- | --- | --- | --- | --- | --- | --- | --- | --- |
| COC(=O)NC(C(=O)N1[C@@H]2C[C@@H]2C[C@H]1c1ncc(-c2ccc3c(c2)cc2n3C(c3cnc(C4CC4)s3)Oc3cc(-c4cnc([C@@H]5CCCN5C(=O)[C@@H](NC(=O)OC)C(C)C)[nH]4)cc(C)c3-2)[nH]1)C1C[C@@H](C)O[C@@H](C)C1 (single isomer, unassigned) [Compound 216] | 0.086 | 0.292 | 2.4 | 4 | – | – | – | – | – | – |
| COC(=O)N[C@H](C(=O)N1CCC[C@H]1c1ncc(-c2cc(F)c3c(c2)OC(c2cnc(C(C)(C)C)s2)n2c-3cc3cc(-c4cnc([C@@H]5CCCN5C(=O)[C@@H](NC(=O)OC)C(C)C)[nH]4)ccc32)[nH]1)C(C)C (single isomer, unassigned) [Compound 303] | 0.942 | 0.0475 | – | – | 2.6 | 3 | – | – | – | – |
| COC(=O)NC(C(=O)N1[C@@H]2C[C@@H]2C[C@H]1c1ncc(-c2ccc3c(c2)cc2n3C(c3cnc(C4CC4)s3)Oc3cc(-c4cnc([C@@H]5CCCN5C(=O)[C@@H](NC(=O)OC)C(C)C)[nH]4)cc(F)c3-2)[nH]1)C1CCOC(C)(C)C1 (single isomer, unassigned) [Compound 313] | 0.122 | – | 3.2 | 45 | – | – | 0.231 | – | – | – |
| COC(=O)NC(C(=O)N1CCC[C@H]1c1ncc(-c2ccc3c(c2)cc2n3C(c3cnc(C(C)(C)C)s3)Oc3cc(-c4cnc([C@@H]5CCCN5C(=O)[C@@H](NC(=O)OC)C(C)C)[nH]4)cc(F)c3-2)[nH]1)C1CCOC(C)(C)C1 (single isomer, unassigned) [Compound 315] | 0.004 | 0.0028 | – | 2 | 2.7 | – | – | – | – | – |
| COC(=O)NC(C(=O)N1CCC[C@H]1c1ncc(-c2ccc3c(c2)cc2n3C(c3cnc(C(C)(C)C)s3)Oc3cc(-c4cnc([C@@H]5CCCN5C(=O)[C@@H](NC(=O)OC)C(C)C)[nH]4)cc(F)c3-2)[nH]1)C1CCOC(C)(C)C1 (single isomer, unassigned) [Compound 316] | 0.012 | 0.0162 | – | – | 1.1 | 4 | – | – | – | – |
| COC(=O)N[C@H](C(=O)N1CCC[C@H]1c1ncc(-c2cc(F)c3c(c2)OC(c2csc(C4CC4)n2)n2c-3cc3cc(-c4cnc([C@@H]5CCCN5C(=O)[C@@H](NC(=O)OC)C(C)C)[nH]4)ccc32)[nH]1)C(C)C (single isomer, unassigned) [Compound 432] | 4 | 2.6 | 1 | 1 | – | – | – | – | – | – |
| COC(=O)NC(C(=O)N1CCC[C@H]1c1ncc(-c2ccc3c(c2)cc2n3C(c3sc(C(C)C)nc3C)Oc3cc(-c4cnc([C@@H]5CCCN5C(=O)[C@@H](NC(=O)OC)C(C)C)[nH]4)cc(F)c3-2)[nH]1)C1CCOC(C)(C)C1 (single isomer, unassigned) [Compound 434] | – | – | 2.3 | 3.5 | – | – | 0.729 | 0.293 | – | – |
| COC(=O)NC(C(=O)N1CCC[C@H]1c1ncc(-c2ccc3c(c2)cc2n3C(c3sc(C(C)C)nc3C)Oc3cc(-c4cnc([C@@H]5CCCN5C(=O)[C@@H](NC(=O)OC)C(C)C)[nH]4)cc(F)c3-2)[nH]1)C1CCOC(C)(C)C1 (single isomer, unassigned) [Compound 435] | 0.181 | 0.618 | – | – | 2.8 | 3.8 | – | – | – | – |
| COC(=O)NC(C(=O)N1CCC[C@H]1c1ncc(-c2ccc3c(c2)cc2n3C(c3cnc(C4(C)CC4)s3)Oc3cc(-c4cnc([C@@H]5CCCN5C(=O)[C@@H](NC(=O)OC)C(C)C)[nH]4)cc(F)c3-2)[nH]1)C1CCOC(C)(C)C1 (single isomer, unassigned) [Compound 459] | 0.083 | 0.296 | – | – | 2.3 | 3 | – | – | – | – |
| COC(=O)NC(C(=O)N1CCC[C@H]1c1ncc(-c2ccc3c(c2)cc2n3C(c3cnc(C4(C)CC4)s3)Oc3cc(-c4cnc([C@@H]5CCCN5C(=O)[C@@H](NC(=O)OC)C(C)C)[nH]4)cc(F)c3-2)[nH]1)C1CCOC(C)(C)C1 (single isomer, unassigned) [Compound 460] | 0.138 | 0.288 | – | – | 2.7 | 3.9 | – | – | – | – |
| COC(=O)NC(C(=O)N1CCC[C@H]1c1ncc(-c2ccc3c(c2)cc2n3C(c3cnc(C4(C)CC4)s3)Oc3cc(-c4cnc([C@@H]5CCCN5C(=O)[C@@H](NC(=O)OC)C(C)C)[nH]4)cc(F)c3-2)[nH]1)C1C[C@@H](C)O[C@@H](C)C1 (single isomer, unassigned) [Compound 461] | 0.132 | 0.32 | 2.2 | 3.8 | – | – | – | – | – | – |
| COC(=O)NC(C(=O)N1CCC[C@H]1c1ncc(-c2ccc3c(c2)cc2n3C(c3cnc(C4(C)CCCC4)s3)Oc3cc(-c4cnc([C@@H]5CCCN5C(=O)[C@@H](NC(=O)OC)C(C)C)[nH]4)cc(F)c3-2)[nH]1)C1C[C@@H](C)O[C@@H](C)C1 (single isomer, unassigned) [Compound 470] | 0.106 | 0.514 | – | – | 2.6 | 3.5 | – | – | – | – |
| COC(=O)NC(C(=O)N1[C@@H]2C[C@@H]2C[C@H]1c1ncc(-c2ccc3c(c2)cc2n3C(c3cnc(C4(C)CCCC4)s3)Oc3cc(-c4cnc([C@@H]5CCCN5C(=O)[C@@H](NC(=O)OC)C(C)C)[nH]4)cc(F)c3-2)[nH]1)C1C[C@@H](C)O[C@@H](C)C1 (single isomer, unassigned) [Compound 474] | 0.263 | 0.269 | – | – | 1.5 | 3.6 | – | – | – | – |
| COC(=O)NC(C(=O)N1[C@@H]2C[C@@H]2C[C@H]1c1ncc(-c2ccc3c(c2)cc2n3C(c3cnc(C4(C)CCCC4)s3)Oc3cc(-c4cnc([C@@H]5CCCN5C(=O)[C@@H](NC(=O)OC)C(C)C)[nH]4)cc(F)c3-2)[nH]1)C1CCOC(C)(C)C1 (single isomer, unassigned) [Compound 476] | 0.19 | 0.316 | – | – | 1.1 | 3.5 | – | – | – | – |
| COC(=O)N[C@H](C(=O)N1CCC[C@H]1c1ncc(-c2cc(F)c3c(c2)OC(c2cnc(C4CC4)s2)n2c-3c(C)c3cc(-c4cnc([C@@H]5CCCN5C(=O)[C@@H](NC(=O)OC)C(C)C)[nH]4)ccc32)[nH]1)C(C)C (single isomer, unassigned) [Compound 495] | – | – | – | – | 1.6 | 2.5 | – | – | 0.184 | 0.27 |
| COC(=O)N[C@H](C(=O)N1CCC[C@H]1c1ncc(-c2cc(F)c3c(c2)OC(c2nc4c(s2)CCC4)n2c-3cc3cc(-c4cnc([C@@H]5CCCN5C(=O)[C@@H](NC(=O)OC)C(C)C)[nH]4)ccc32)[nH]1)C(C)C (single isomer, unassigned) [Compound 504] | 1.67 | 1.67 | 2.6 | 2.4 | – | – | – | – | – | – |
| COC(=O)N[C@H](C(=O)N1CCC[C@H]1c1ncc(-c2cc(F)c3c(c2)OC(c2cnc(CC4CC4)s2)n2c-3cc3cc(-c4cnc([C@@H]5CCCN5C(=O)[C@@H](NC(=O)OC)C(C)C)[nH]4)ccc32)[nH]1)C(C)C (single isomer, unassigned) [Compound 509] | – | – | – | – | 2 | 2.8 | – | – | 0.018 | 0.014 |
| COC(=O)N[C@H](C(=O)N1CCC[C@H]1c1ncc(-c2cc(F)c3c(c2)OC(c2cnc(C4(C)CC4)s2)n2c-3cc3cc(-c4cnc([C@@H]5CCCN5C(=O)[C@@H](NC(=O)OC)C(C)C)[nH]4)ccc32)[nH]1)C(C)C (single isomer, unassigned) [Compound 512] | 0.783 | 0.347 | – | – | 8.5 | 3.9 | – | – | – | – |
| COC(=O)N[C@H](C(=O)N1CCC[C@H]1c1ncc(-c2cc(F)c3c(c2)OC(c2sc(C(C)C)nc2C)n2c-3cc3cc(-c4cnc([C@@H]5CCCN5C(=O)[C@@H](NC(=O)OC)C(C)C)[nH]4)ccc32)[nH]1)C(C)C (single isomer, unassigned) [Compound 515] | – | – | 1.3 | 2.9 | – | – | 4.45 | 1.84 | – | – |
| COC(=O)N[C@H](C(=O)N1CCC[C@H]1c1ncc(-c2cc(F)c3c(c2)OC(c2cnc(C4CCOCC4)s2)n2c-3cc3cc(-c4cnc([C@@H]5CCCN5C(=O)[C@@H](NC(=O)OC)C(C)C)[nH]4)ccc32)[nH]1)C(C)C (single isomer, unassigned) [Compound 532] | 1.18 | 1.76 | – | – | 1.3 | 3.6 | – | – | – | – |
| CCCc1ncc(C2Oc3cc(-c4cnc([C@@H]5CCCN5C(=O)[C@@H](NC(=O)OC)C(C)C)[nH]4)cc(F)c3-c3cc4cc(-c5cnc([C@@H]6CCCN6C(=O)[C@@H](NC(=O)OC)C(C)C)[nH]5)ccc4n32)s1 (stereo partly drawn) [Compound 16] | 0.284 | 0.083 | – | – | 1.7 | 1 | – | – | – | – |
